In PMC10265666, “Lung SPLUNC1 Peptide Derivatives in the Lipid Membrane Headgroup Kill Gram-Negative Planktonic and Biofilm Bacteria” (Biomacromolecules, 2023):

Experiments:
[1] = Circular dichroism secondary structure in G(−)IM ULVs; assay type: physicochemical; conditions: 10 μM peptide, 15 mM PBS pH 7, 37 °C
Protocol: Unilamellar vesicles (ULVs) of ∼600 Å diameter were prepared using an Avanti extruder: 200 μL of 20 mg/ml G(−)IM lipid in 15 mM PBS was extruded 21 times through Nucleopore filters of size 500 Å using 0.2 mL Hamilton syringes in the Avanti extruder. The final concentration of G(−)IM lipid in the ULVs was determined gravimetrically to be 15 mg/ml. Concentrated ULVs were added to 3 mL of 10 μM peptide in 15 mM PBS at pH 7 to create lipid/peptide molar ratios between 0:1 and 70:1. The samples remained at room temperature for ∼16 h before the CD measurement. Data were collected in 3 mL quartz cuvettes using a Jasco 1500 CD spectrophotometer at 37 °C in the Center for Nucleic Acids Science and Technology at Carnegie Mellon University. The samples were scanned from 200 to 240 nm 20 times, and the ellipticity (ϵ) results were averaged. Temperature was controlled at 37 °C via a Peltier element and water circulation through the sample compartment. Nitrogen gas was used at a flow rate between 20 and 25 ft^3/h (CFH). The parameters for scanning were: speed 100 nm/min, step size 1.0 nm, response time 1 second, bandwidth 1 nm, and sensitivity of 20 mdeg. OriginPro 2019 (OriginLab, Northampton, MA) was used to carry out a linear least-squares fit of the smoothed ellipticity traces to four secondary structural motifs representing α-helix, β-sheet, β-turn, and random coil.[20] This analysis gives a percentage match of each of the secondary structural motifs to the total sample ellipticity. Data were finally converted to mean residue ellipticity, taking into account the peptide concentration (10 μMolar) and number of amino acids (N), using the equation: MRE = (10^4/N)ϵ deg cm^2/dmol.

[2] = system: 3T3 fibroblast cells; assay type: cell-based, murine
Protocol: The TetraZ cell counting kit was used to quantify cell proliferation and cell viability. It is based on a water-soluble tetrazolium salt, which, when reduced by cellular dehydrogenases, produces a chromophore. ∼5 × 10^4 immortalized mouse RAW 264.7 macrophages and 3T3 fibroblast cells were incubated in a 96-well plate and allowed to attach for 24 h. AMPs in cell culture medium (DMEM D5796, 10% FBS, 1% P/S) were added to the wells. Cells were incubated at 37 °C for 4 h with the SPLUNC1 peptide derivatives at 8, 16, 32, and 64 μM concentrations. 10 μL of TetraZ was added and incubated for an additional 1.5 h at 37 °C. A Biotek Epoch 2 visible spectrophotometer was used to read the absorbance. The absorbance by the chromophore at λ = 450nm is proportional to the number of live cells (see standard curves, Figures S1 and S2, and additional cell line results (Figures S3 and S4) in the S.I.).

[3] = G(−)IM/peptide molar ratio 10:1
[4] = G(−)IM/peptide molar ratio 15:1
[5] = G(−)IM/peptide molar ratio 20:1
[6] = G(−)IM/peptide molar ratio 30:1
[7] = G(−)IM/peptide molar ratio 50:1
[8] = G(−)IM/peptide molar ratio 70:1

CC[C@H](C)[C@H](NC(=O)[C@@H](NC(=O)[C@H](CO)NC(=O)[C@H](CCCCN)NC(=O)[C@@H](NC(=O)[C@H](CCCCN)NC(=O)CNC(=O)[C@H](Cc1c[nH]c2ccccc12)NC(=O)[C@@H](NC(=O)CNC(=O)CNC(=O)[C@@H](NC(=O)[C@H](Cc1c[nH]c2ccccc12)NC(=O)CNC(=O)[C@H](CCCCN)NC(=O)[C@@H](NC(=O)[C@H](CCCCN)NC(=O)[C@H](CCCCN)NC(=O)[C@H](Cc1ccccc1)NC(=O)[C@H](Cc1ccccc1)NC(=O)[C@H](CCCCN)NC(=O)[C@H](CCCCN)NC(=O)[C@@H](N)CC(C)C)C(C)C)C(C)C)C(C)C)C(C)C)C(C)C)C(=O)N[C@@H](CCCCN)C(=O)O (stereo in doubt) [A4-153] gave a Random ([1]; G(−)IM/peptide molar ratio 0:1) of 57.7%, a α-helix ([1]; G(−)IM/peptide molar ratio 0:1) of 6.4% and a β-sheet ([1]; G(−)IM/peptide molar ratio 0:1) of 34.2%. The β-turn ([1]; G(−)IM/peptide molar ratio 0:1) was 1.7%, the Random ([1]; G(−)IM/peptide molar ratio 1:1) was 51.7% and the α-helix ([1]; G(−)IM/peptide molar ratio 1:1) was 11.9%. For the same compound, the β-sheet ([1]; G(−)IM/peptide molar ratio 1:1) was 32.4%, the β-turn ([1]; G(−)IM/peptide molar ratio 1:1) was 4.0% and the Random ([1]; G(−)IM/peptide molar ratio 5:1) was 62.9%. The α-helix ([1]; G(−)IM/peptide molar ratio 5:1) was 10.2%, the β-sheet ([1]; G(−)IM/peptide molar ratio 5:1) was 26.9% and the β-turn ([1]; G(−)IM/peptide molar ratio 5:1) was 0%. The Random [1, 3] was 62.5%, the α-helix [1, 3] was 14.8% and the β-sheet [1, 3] was 17.7%. It also gave a β-turn [1, 3] of 5.0%, a Random [1, 4] of 15.6% and a α-helix [1, 4] of 41.9%. It also gave a β-sheet [1, 4] of 41.2%, a β-turn [1, 4] of 1.3% and a Random [1, 5] of 0%. It also gave a α-helix [1, 5] of 78.3%, a β-sheet [1, 5] of 8.0% and a β-turn [1, 5] of 13.7%. For the same compound, the Random [1, 6] was 4.6%, the α-helix [1, 6] was 78.5% and the β-sheet [1, 6] was 10.2%. It also gave a β-turn [1, 6] of 6.7%, a Random [1, 7] of 0% and a α-helix [1, 7] of 77.4%. It also gave a β-sheet [1, 7] of 13.6%, a β-turn [1, 7] of 9.0% and a Random [1, 8] of 0%. It also gave a α-helix [1, 8] of 64.1%, a β-sheet [1, 8] of 15.1% and a β-turn [1, 8] of 20.8%. The “concentration required for 0% viable cells (estimate)” value [2] was 128 µM and the “viable cells compared to the control” value ([2]; 64 µM) was about 30%.
